Data taken from US9750727B2 (priority 2010, dated 2017).

Test system: drug-resistant clinical isolates of M. tuberculosis
Assay type: cell-based

SMILES: NC(=S)NN=Cc1ccncc1.[O-][Cl+3]([O-])([O-])O [new treatment]
- MIC for 88.8% of cultures: 3.125 to 6.25 µg/mL
